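Following 48 hours of exposure in 96-well plates, responses at five concentrations were used to interpolate endpoints linearly. GI50 marks 50% less growth.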 The source made the active and inactive calls. Rule as the data show it: active = GI50 up to about 1.1 µM and inactive = higher.
Legend:
Test in all cases: inhibition of tumour cell growth, NCI panel, 48 h
CCRF-CEM = system: CCRF-CEM
SNB-78 = system: SNB-78
DMS-273 = system: DMS-273
HOP-62 = system: HOP-62
UO-31 = system: UO-31
EKVX = system: EKVX
786-0 = system: 786-0
DMS-114 = system: DMS-114
KM-20L2 = system: KM-20L2
SK-MEL-28 = system: SK-MEL-28
SK-MEL-2 = system: SK-MEL-2
RPMI-8226 = system: RPMI-8226
HT-29 = system: HT-29
NCI-H522 = system: NCI-H522
HCT-15 = system: HCT-15
SR = system: SR
HCC 2998 = system: HCC 2998
DLD-1 = system: DLD-1
LOX IMVI = system: LOX IMVI
SF-539 = system: SF-539
U-251 = system: U-251
K562 = system: K562
LXFL 529 = system: LXFL 529
NCI-H460 = system: NCI-H460
NCI-H226 = system: NCI-H226
M19-MEL = system: M19-MEL
HCT-116 = system: HCT-116
SW-620 = system: SW-620
HOP-18 = system: HOP-18
CAKI-1 = system: CAKI-1
NCI-H23 = system: NCI-H23
SK-OV-3 = system: SK-OV-3
HOP-92 = system: HOP-92
SF-295 = system: SF-295
Malme-3M = system: Malme-3M
SNB-75 = system: SNB-75
HL-60 = system: HL-60
A549 = system: A549
KM12 = system: KM12
M14 = system: M14
MOLT-4 = system: MOLT-4
SNB-19 = system: SNB-19
OVCAR-8 = system: OVCAR-8
IGROV-1 = system: IGROV-1
SN12C = system: SN12C
TK-10 = system: TK-10
OVCAR-4 = system: OVCAR-4
COLO 205 = system: COLO 205
UACC-62 = system: UACC-62
UACC-257 = system: UACC-257
SF-268 = system: SF-268
SK-MEL-5 = system: SK-MEL-5
ACHN = system: ACHN
OVCAR-3 = system: OVCAR-3
OVCAR-5 = system: OVCAR-5

**Q.** `COc1ccc(-c2cn3ccsc3n2)cc1` was tested. Which GI50 (CCRF-CEM) did it give?
**A.** 64 µM (inactive)

**Q.** And the GI50 (SNB-78)?
**A.** > 100 µM (inactive)

**Q.** What about the GI50 (DMS-273) of the same compound?
**A.** > 100 µM (inactive)

**Q.** And the GI50 (HOP-62)?
**A.** > 100 µM (inactive)

**Q.** What about the GI50 (UO-31) of the same compound?
**A.** > 100 µM (inactive)

**Q.** And the GI50 (EKVX)?
**A.** > 100 µM (inactive)

**Q.** What about the GI50 (786-0) of the same compound?
**A.** 35.6 µM (inactive)

**Q.** And the GI50 (DMS-114)?
**A.** 47.8 µM (inactive)

**Q.** What about the GI50 (KM-20L2) of the same compound?
**A.** 57.8 µM (inactive)

**Q.** What about the GI50 (SK-MEL-28) of the same compound?
**A.** > 100 µM (inactive)

**Q.** What about the GI50 (SK-MEL-2) of the same compound?
**A.** > 100 µM (inactive)

**Q.** And the GI50 (RPMI-8226)?
**A.** 22.3 µM (inactive)

**Q.** What about the GI50 (HT-29) of the same compound?
**A.** 82.8 µM (inactive)

**Q.** What about the GI50 (NCI-H522) of the same compound?
**A.** 65.3 µM (inactive)

**Q.** And the GI50 (HCT-15)?
**A.** 39.6 µM

**Q.** And the GI50 (SR)?
**A.** 15.9 µM (inactive)

**Q.** What about the GI50 (HCC 2998) of the same compound?
**A.** > 100 µM (inactive)

**Q.** What about the GI50 (DLD-1) of the same compound?
**A.** > 100 µM (inactive)

**Q.** And the GI50 (LOX IMVI)?
**A.** 36.2 µM (inactive)

**Q.** And the GI50 (SF-539)?
**A.** 75.9 µM (inactive)

**Q.** And the GI50 (U-251)?
**A.** 75.2 µM (inactive)

**Q.** And the GI50 (K562)?
**A.** 55.2 µM (inactive)

**Q.** And the GI50 (LXFL 529)?
**A.** > 100 µM (inactive)

**Q.** What about the GI50 (NCI-H460) of the same compound?
**A.** 87.7 µM (inactive)

**Q.** What about the GI50 (NCI-H226) of the same compound?
**A.** > 100 µM (inactive)

**Q.** And the GI50 (M19-MEL)?
**A.** > 100 µM (inactive)

**Q.** And the GI50 (HCT-116)?
**A.** 45.4 µM (inactive)

**Q.** What about the GI50 (SW-620) of the same compound?
**A.** 11.2 µM (inactive)

**Q.** And the GI50 (HOP-18)?
**A.** > 100 µM (inactive)

**Q.** And the GI50 (CAKI-1)?
**A.** > 100 µM (inactive)

**Q.** What about the GI50 (NCI-H23) of the same compound?
**A.** > 100 µM (inactive)

**Q.** And the GI50 (SK-OV-3)?
**A.** > 100 µM (inactive)

**Q.** And the GI50 (HOP-92)?
**A.** > 100 µM (inactive)

**Q.** And the GI50 (SF-295)?
**A.** > 100 µM (inactive)

**Q.** What about the GI50 (Malme-3M) of the same compound?
**A.** > 100 µM (inactive)

**Q.** And the GI50 (SNB-75)?
**A.** > 100 µM (inactive)

**Q.** And the GI50 (HL-60)?
**A.** 24.7 µM (inactive)

**Q.** And the GI50 (A549)?
**A.** > 100 µM (inactive)

**Q.** And the GI50 (KM12)?
**A.** > 100 µM (inactive)

**Q.** What about the GI50 (M14) of the same compound?
**A.** > 100 µM (inactive)

**Q.** What about the GI50 (MOLT-4) of the same compound?
**A.** 97.7 µM (inactive)

**Q.** And the GI50 (SNB-19)?
**A.** > 100 µM (inactive)

**Q.** And the GI50 (OVCAR-8)?
**A.** > 100 µM (inactive)

**Q.** And the GI50 (IGROV-1)?
**A.** > 100 µM (inactive)

**Q.** What about the GI50 (SN12C) of the same compound?
**A.** > 100 µM (inactive)

**Q.** And the GI50 (TK-10)?
**A.** > 100 µM (inactive)

**Q.** What about the GI50 (OVCAR-4) of the same compound?
**A.** > 100 µM (inactive)

**Q.** And the GI50 (COLO 205)?
**A.** 33.1 µM (inactive)

**Q.** What about the GI50 (UACC-62) of the same compound?
**A.** > 100 µM (inactive)

**Q.** And the GI50 (UACC-257)?
**A.** > 100 µM (inactive)

**Q.** And the GI50 (SF-268)?
**A.** > 100 µM (inactive)

**Q.** What about the GI50 (SK-MEL-5) of the same compound?
**A.** > 100 µM (inactive)

**Q.** And the GI50 (ACHN)?
**A.** > 100 µM (inactive)

**Q.** And the GI50 (OVCAR-3)?
**A.** > 100 µM (inactive)

**Q.** And the GI50 (OVCAR-5)?
**A.** > 100 µM (inactive)

From ChEMBL document CHEMBL1201862, “PubChem BioAssay data set” (2004)
